# Assay results: PubChem BioAssay AID2060888 (Molecular Pharmacology Branch, DTP, NCI, 2025)
# Test system: 695427-040-R-J1-PDC complex spheroid viability
# Test: Anticancer human tumor 695427-040-R-J1-PDC patient-derived colon adenocarcinoma cell line growth inhibition [RAS]
# Conditions: for IC50: curve of first compound; for viability, T/C: stronger effect = lower value
# In short: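 Agents were tested in combination matrices in half-log decrements from a top concentration at or near clinical Cmax (10 microM if undetermined). Targets were multi-cell spheroids of tumour lines plus HUVEC and MSC stromal cells.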
# [1] = second compound 0.00316 µM, first compound 0.0316 µM
# [2] = second compound 0.00316 µM, first compound 0.1 µM
# [3] = second compound 0.01 µM, first compound 0.0316 µM
# [4] = second compound 0.01 µM, first compound 0.1 µM
# [5] = second compound 0.0316 µM, first compound 0.0316 µM
# [6] = second compound 0.0316 µM, first compound 0.1 µM
# [7] = second compound 0.1 µM, first compound 0.0316 µM
# [8] = second compound 0.1 µM, first compound 0.1 µM
# [9] = second compound 0.316 µM, first compound 0.0316 µM
# [10] = second compound 0.316 µM, first compound 0.1 µM
# [11] = second compound 1 µM, first compound 0.0316 µM
# [12] = second compound 1 µM, first compound 0.1 µM
# 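Further: viability read after seven days of drug exposure.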
# 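Wherever viability, T/C is given: 100% = DMSO vehicle control viability.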
structure (smiles),measurement,setting,value
CC(C)NCC(C(=O)N1CCN(c2ncnc3c2C(C)CC3O)CC1)c1ccc(Cl)cc1 (centres undefined) + C=CC(=O)N1CCN(c2nc(OCC3CCCN3C)nc3c(F)c(-c4nc(N)cc(C)c4C(F)(F)F)c(Cl)cc23)C(C)C1,IC50,second compound 0.00316 µM,> 10 µM
same,IC50,second compound 0.01 µM,> 10 µM
same,IC50,second compound 0.0316 µM,> 10 µM
same,IC50,second compound 0.1 µM,> 10 µM
same,IC50,second compound 0.316 µM,> 10 µM
same,IC50,second compound 1 µM,> 10 µM
same,"viability, T/C",[1],98%
same,"viability, T/C",[2],95.2%
same,"viability, T/C","second compound 0.00316 µM, first compound 0.316 µM",88.2%
same,"viability, T/C","second compound 0.00316 µM, first compound 1 µM",84.7%
same,"viability, T/C","second compound 0.00316 µM, first compound 3.16 µM",93.6%
same,"viability, T/C","second compound 0.00316 µM, first compound 10 µM",108%
same,"viability, T/C",[3],107%
same,"viability, T/C",[4],102%
same,"viability, T/C","second compound 0.01 µM, first compound 0.316 µM",88.5%
same,"viability, T/C","second compound 0.01 µM, first compound 1 µM",93.3%
same,"viability, T/C","second compound 0.01 µM, first compound 3.16 µM",101%
same,"viability, T/C","second compound 0.01 µM, first compound 10 µM",111%
same,"viability, T/C",[5],109%
same,"viability, T/C",[6],91.1%
same,"viability, T/C","second compound 0.0316 µM, first compound 0.316 µM",91.7%
same,"viability, T/C","second compound 0.0316 µM, first compound 1 µM",87.8%
same,"viability, T/C","second compound 0.0316 µM, first compound 3.16 µM",102%
same,"viability, T/C","second compound 0.0316 µM, first compound 10 µM",106%
same,"viability, T/C",[7],98.7%
same,"viability, T/C",[8],91.5%
same,"viability, T/C","second compound 0.1 µM, first compound 0.316 µM",81.3%
same,"viability, T/C","second compound 0.1 µM, first compound 1 µM",83.6%
same,"viability, T/C","second compound 0.1 µM, first compound 3.16 µM",105%
same,"viability, T/C","second compound 0.1 µM, first compound 10 µM",111%
same,"viability, T/C",[9],107%
same,"viability, T/C",[10],88.6%
same,"viability, T/C","second compound 0.316 µM, first compound 0.316 µM",91.4%
same,"viability, T/C","second compound 0.316 µM, first compound 1 µM",95.2%
same,"viability, T/C","second compound 0.316 µM, first compound 3.16 µM",102%
same,"viability, T/C","second compound 0.316 µM, first compound 10 µM",107%
same,"viability, T/C",[11],91.7%
same,"viability, T/C",[12],94.6%
same,"viability, T/C","second compound 1 µM, first compound 0.316 µM",89%
same,"viability, T/C","second compound 1 µM, first compound 1 µM",79.7%
same,"viability, T/C","second compound 1 µM, first compound 3.16 µM",81.5%
same,"viability, T/C","second compound 1 µM, first compound 10 µM",89.5%
CC(C)n1nc(-c2ccc3oc(N)nc3c2)c2c(N)ncnc21 + C=CC(=O)N1CCN(c2nc(OCC3CCCN3C)nc3c(F)c(-c4nc(N)cc(C)c4C(F)(F)F)c(Cl)cc23)C(C)C1,IC50,second compound 0.00316 µM,> 0.1 µM
same,IC50,second compound 0.01 µM,> 0.1 µM
same,IC50,second compound 0.0316 µM,> 0.1 µM
same,IC50,second compound 0.1 µM,> 0.1 µM
same,IC50,second compound 0.316 µM,> 0.1 µM
same,IC50,second compound 1 µM,> 0.1 µM
same,"viability, T/C","second compound 0.00316 µM, first compound 0.000316 µM",98.5%
same,"viability, T/C","second compound 0.00316 µM, first compound 0.001 µM",96.5%
same,"viability, T/C","second compound 0.00316 µM, first compound 0.00316 µM",82.4%
same,"viability, T/C","second compound 0.00316 µM, first compound 0.01 µM",80.2%
same,"viability, T/C",[1],72.2%
same,"viability, T/C",[2],61.8%
same,"viability, T/C","second compound 0.01 µM, first compound 0.000316 µM",106%
same,"viability, T/C","second compound 0.01 µM, first compound 0.001 µM",87.4%
same,"viability, T/C","second compound 0.01 µM, first compound 0.00316 µM",96.5%
same,"viability, T/C","second compound 0.01 µM, first compound 0.01 µM",79.9%
same,"viability, T/C",[3],70.9%
same,"viability, T/C",[4],58.1%
same,"viability, T/C","second compound 0.0316 µM, first compound 0.000316 µM",101%
same,"viability, T/C","second compound 0.0316 µM, first compound 0.001 µM",89.8%
same,"viability, T/C","second compound 0.0316 µM, first compound 0.00316 µM",86%
same,"viability, T/C","second compound 0.0316 µM, first compound 0.01 µM",75%
same,"viability, T/C",[5],76.5%
same,"viability, T/C",[6],65%
same,"viability, T/C","second compound 0.1 µM, first compound 0.000316 µM",103%
same,"viability, T/C","second compound 0.1 µM, first compound 0.001 µM",96.1%
same,"viability, T/C","second compound 0.1 µM, first compound 0.00316 µM",90%
same,"viability, T/C","second compound 0.1 µM, first compound 0.01 µM",77%
same,"viability, T/C",[7],70.4%
same,"viability, T/C",[8],66.7%
same,"viability, T/C","second compound 0.316 µM, first compound 0.000316 µM",101%
same,"viability, T/C","second compound 0.316 µM, first compound 0.001 µM",88.6%
same,"viability, T/C","second compound 0.316 µM, first compound 0.00316 µM",88.8%
same,"viability, T/C","second compound 0.316 µM, first compound 0.01 µM",84%
same,"viability, T/C",[9],69.9%
same,"viability, T/C",[10],61.6%
same,"viability, T/C","second compound 1 µM, first compound 0.000316 µM",98.4%
same,"viability, T/C","second compound 1 µM, first compound 0.001 µM",87.1%
same,"viability, T/C","second compound 1 µM, first compound 0.00316 µM",88.3%
same,"viability, T/C","second compound 1 µM, first compound 0.01 µM",78.3%
same,"viability, T/C",[11],72.6%
same,"viability, T/C",[12],63.4%
